{
  "source": "patent US11421145B2",
  "about": "“Oil recovery methods using a formulation containing an unsaturated zwitterionic surfactant and a polymer” (King Fahd University of Petroleum and Minerals, priority 2019, dated 2022)",
  "type_in_all_cases": "physicochemical",
  "key": {"[1]": {"assay": "Solubility and compatibility in seawater (SW) and formation water (FW)", "procedure": "Synthetic seawater (SW) and formation water (FW) were prepared using NaCl, Na2SO4, NaHCO3, CaCl2, and MgCl2. All the salts were obtained from Sigma-Aldrich, USA.\nSolubility and compatibility of the surfactant in the reservoir and injection brine are the primary considerations for further evaluation of the unsaturated surfactant for EOR application. If the surfactant is not soluble in the seawater and formation brine, it can be rejected at the initial stage. […] After the compatibility test with SW and FW, the short-term thermal stability of the synthesized unsaturated surfactant was evaluated using TGA analysis. […] Only 3% weight loss was observed up to 200° C., which was mainly associated with solvent and water evaporation. […] TGA results helped to identify and eliminate the surfactants that had lower decomposition temperatures. However, for real field applications, long-term thermal stability of the surfactant must be considered, as the surfactant residence time in the reservoir could vary from a few days to a few months."}, "[2]": {"assay": "Long-term thermal stability: aging at 90° C. for 15 days, phase behavior, NMR, FTIR", "procedure": "The short-term thermal stability of the unsaturated surfactant was assessed using thermogravimetric analysis (TGA). The thermal stability for a longer period (2 weeks) was determined by FTIR and NMR. The synthesized unsaturated surfactant was dried and heated at 10° C./min in an SDT-Q600 instrument (TA Instruments) from room temperature to 600° C. under nitrogen atmosphere. The thermal stability for a longer period was determined by aging 1 wt % aqueous solution of the unsaturated surfactant at 90° C. for 15 days. FTIR, ^13C NMR, and ^1H NMR were used to identify the structural changes in the unsaturated surfactant after aging. A Nicolet 6700 spectrometer was used for FTIR analysis of the unsaturated surfactant, while a JEOL 500 MHz spectrometer was used for obtaining the NMR spectra.\nFor long-term thermal stability, 1 wt % surfactant solution was aged in sealed aging tubes at 90° C. for 15 days. […] The two methyl carbons directly attached to the quaternary nitrogen [—CH2—N^+—(CH3)2—CH2—] were detected at δ=50.8 ppm and the two methylene carbons directly attached to quaternary nitrogen [—CH2—N^+—(CH3)2—CH2—] at δ=62.2 and δ=62.7 ppm. The olefinic carbons in the unsaturated surfactant tail appeared at δ=129.6 and δ=130.0 ppm. The amide carbonyl group [—CH2—C═O—NH] resonated at δ=175.1 ppm. The peaks appearing in the ^13C-NMR spectra of the sample agreed with the proposed structure of the unsaturated surfactant. […] The carbons of two methyl groups connected with the central positively charged nitrogen [—CH2—N^+(CH3)2—CH2—] still present in the aged sample and were detected at δ=50.8 ppm. Similarly, the carbons of two methylene groups attached to the central positively charged nitrogen [—CH2—N^+(CH3)2—CH2—] were also detected at δ=62.2 and δ=62.7 ppm. […] In the ^1H-NMR spectrum of the unsaturated surfactant before aging (FIG. 5), the terminal methyl protons [—(CH2)n—CH3)] was detected at δ=0.84 ppm and the methylene protons [—(CH2)n—CH3)] in the unsaturated surfactant tail resonated at δ=1.23 ppm. […]"}, "[3]": {"assay": "Compatibility of surfactant with AM-AMPS copolymer", "details": "commercially available AM-AMPS copolymer", "procedure": "The interactions of the synthesized unsaturated surfactant with a commercially available copolymer of acrylamide and 2-acrylamido-2-methylpropane sulfonic acid (AM-AMPS) were evaluated using compatibility and rheological tests."}},
  "note": "“Also recorded” adds a separate entry of the source.",
  "data": [
    {"smiles": "CCCCCCCC/C=C\\CCCCCCCC(=O)NCCC[N+](C)(C)CCCS(=O)(=O)[O-]", "note": "[unsaturated surfactant, 3-(N-oleamidopropyl-N,N-dimethylammonium) propane sulfonate]", "values": [
      {"measurement": "precipitation or phase separation on dissolution", "setting": "[1]; SW (57,643 ppm) and FW (213,734 ppm)", "value": "no precipitation or phase separation"},
      {"measurement": "solubility in SW and FW", "setting": "[1]; seawater and formation water", "value": "excellent solubility"},
      {"measurement": "appearance of solution after aging", "setting": "[2]; 1 wt % surfactant solution, sealed tubes, 90° C., 15 days", "value": "remained clear and there was no phase separation or precipitation"},
      {"measurement": "long-term thermal stability", "setting": "[2]; 90° C., 15 days, phase behavior, TGA, FTIR, NMR", "value": "excellent long-range thermal stability"},
      {"measurement": "structure after aging (1H/13C NMR, FTIR)", "setting": "[2]; aged 15 days at 90° C.", "value": "survival of original structure; also recorded: no structure degradation"},
      {"measurement": "compatibility with acrylamide copolymer", "setting": "[3]", "value": "excellent compatibility"}
    ]}
  ]
}
